Values quoted from earlier work in patent US8865693B2, “Prevention of infection” (Pop Test Cortisol LLC, priority 2011, dated 2014).

Assays:
[1] = in words only
glucocorticoid receptor = biological target: T1, glucocorticoid receptor (Homo sapiens, UniProt P04150); settings: in words only
T1 sequence (P04150 1-777): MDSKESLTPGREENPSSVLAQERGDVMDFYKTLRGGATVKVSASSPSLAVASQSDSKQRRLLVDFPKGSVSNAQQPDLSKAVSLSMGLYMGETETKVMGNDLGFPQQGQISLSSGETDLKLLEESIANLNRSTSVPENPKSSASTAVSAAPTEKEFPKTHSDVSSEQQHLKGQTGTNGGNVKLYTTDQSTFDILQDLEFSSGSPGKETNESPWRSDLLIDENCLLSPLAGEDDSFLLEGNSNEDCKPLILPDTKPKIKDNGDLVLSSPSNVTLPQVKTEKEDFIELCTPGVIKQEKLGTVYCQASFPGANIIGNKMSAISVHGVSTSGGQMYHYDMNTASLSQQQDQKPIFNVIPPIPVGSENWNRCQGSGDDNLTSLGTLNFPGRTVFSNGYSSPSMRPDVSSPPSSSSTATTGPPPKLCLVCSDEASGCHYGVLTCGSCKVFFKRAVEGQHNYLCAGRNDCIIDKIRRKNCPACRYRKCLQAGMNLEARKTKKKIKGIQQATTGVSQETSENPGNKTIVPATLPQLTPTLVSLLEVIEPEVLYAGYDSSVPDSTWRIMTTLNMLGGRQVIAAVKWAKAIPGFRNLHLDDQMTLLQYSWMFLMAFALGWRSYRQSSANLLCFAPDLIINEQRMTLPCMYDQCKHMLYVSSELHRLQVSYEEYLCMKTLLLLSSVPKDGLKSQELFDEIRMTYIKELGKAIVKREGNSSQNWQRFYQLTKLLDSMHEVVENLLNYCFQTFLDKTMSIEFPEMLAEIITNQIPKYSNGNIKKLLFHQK

[2] = in words only; remark: listed apart in the source
[3] = phase I and phase II clinical trials already performed
[4] = test system: mineralocorticoid, progesterone, estrogen and androgen receptors; settings: in words only

Compound: CC#C[C@]1(O)CC[C@H]2[C@@H]3CCC4=CC(=O)CCC4=C3[C@@H](c3ccc4c(c3)OCO4)C[C@@]21C [ORG 34517, (11β,17β)-11-(1,3-benzodioxol-5-yl)-17-hydroxy-17-(1-propynyl) estra-4,9-dien-3-one]
- androgenic activities [1]: low
- glucocorticoid receptor binding affinity (glucocorticoid receptor): high
- progestagenic activities [2]: low
- significant toxicities and side effects identified [3]: none were identified
- cross-binding to other related steroidal hormone receptors (such as those for estrogen and progesterone) [4]: without significant cross-binding
